For assay [1], the target named is T1, serotonin reuptake (Rattus norvegicus, UniProt P31652).
T1 construct: rat cortical synaptosome preparation; from tissue; host or cells: rat cortical synaptosomes
Kind of assay: Serotonin transport inhibition, [3H]5-HT uptake in rat cortical synaptosomes. The settings on record: [3H]5-HT 10 nM. In kind it is biochemical. As for the experimental part: (§1) Aliquots of test compound and rat cortical synaptosome preparation were pre-incubated for 10 min/37° C., and then added [^3H]NE or [^3H]5-HT (final concentration 10 nM). Non-specific uptake was determined in the presence of 10 μM talsupram or citalopram and the total uptake was determined in the presence of buffer. Aliquots were incubated for 15 minutes at 37° C. After the incubation [^3H]NE or [^3H]5-HT taken up by synaptosomes was separated by filtration through Unifilter GF/C, presoaked in 0.1% PEI for 30 minutes, using a Tomtec CellHarvester program. Filters were washed and counted in a Wallac MicroBeta counter.

In assay [2] the target is T2, noradrenalin reuptake (Rattus norvegicus, UniProt Q63380).
T2 construct: rat cortical synaptosome preparation; from tissue; host or cells: rat cortical synaptosomes
T2 sequence (Q63380 1-617): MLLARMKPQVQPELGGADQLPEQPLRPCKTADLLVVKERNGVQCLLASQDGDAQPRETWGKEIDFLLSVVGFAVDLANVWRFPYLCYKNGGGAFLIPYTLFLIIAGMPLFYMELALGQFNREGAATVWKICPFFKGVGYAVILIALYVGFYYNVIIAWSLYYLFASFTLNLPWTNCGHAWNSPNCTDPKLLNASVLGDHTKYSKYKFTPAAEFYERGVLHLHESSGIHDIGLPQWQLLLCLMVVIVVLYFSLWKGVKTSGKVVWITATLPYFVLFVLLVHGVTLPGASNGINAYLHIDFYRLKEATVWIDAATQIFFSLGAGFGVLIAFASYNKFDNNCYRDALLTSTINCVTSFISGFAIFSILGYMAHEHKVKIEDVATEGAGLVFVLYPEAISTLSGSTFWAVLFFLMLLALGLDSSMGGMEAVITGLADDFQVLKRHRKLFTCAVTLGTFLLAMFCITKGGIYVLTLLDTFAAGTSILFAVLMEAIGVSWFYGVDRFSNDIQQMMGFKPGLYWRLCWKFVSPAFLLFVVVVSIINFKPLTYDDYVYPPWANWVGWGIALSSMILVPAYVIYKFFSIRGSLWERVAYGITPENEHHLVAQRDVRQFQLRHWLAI
Kind of assay: Noradrenalin transport inhibition, [3H]NE uptake in rat cortical synaptosomes. Format: biochemical. The settings on record: [3H]NE 10 nM. As for the experimental part: as §1

For assay [3], the system named is Rats. In words: Impact on sleep architecture, EEG/EMG in rats. Particulars: for % of time spent in REM / % of time spent in SWS / % of time spent in Wake: second hour of recording; for sleep latency: time from injection until first consolidated sleeping episode. Format: in vivo, rat. As for the experimental part: Rats were implanted with EEG and EMG electrodes to monitor the brain electrical activity and the muscle electrical activity, respectively. The electrodes were connected to a radio transmitter allowing a continuous collection of activity data from freely moving, undisturbed and home-caged animals. The EEG and EMG data were visually scored to determine the arousal states wake, SWS and REM sleep. A group of 10 rats were administered vehicle or the compound of the present invention corresponding to 0.4 mg/kg and 4 mg/kg of the free base. A William's square cross over design was applied so that each animal receives each treatment once.

In assay [4] the target is 5-HT2A receptors (Homo sapiens, UniProt P28223). In words: 5-HT2A functional assay, 5-HT evoked Ca2+ release in CHO cells (FLIPR).
5-HT2A receptors, sequence (P28223 whole entry): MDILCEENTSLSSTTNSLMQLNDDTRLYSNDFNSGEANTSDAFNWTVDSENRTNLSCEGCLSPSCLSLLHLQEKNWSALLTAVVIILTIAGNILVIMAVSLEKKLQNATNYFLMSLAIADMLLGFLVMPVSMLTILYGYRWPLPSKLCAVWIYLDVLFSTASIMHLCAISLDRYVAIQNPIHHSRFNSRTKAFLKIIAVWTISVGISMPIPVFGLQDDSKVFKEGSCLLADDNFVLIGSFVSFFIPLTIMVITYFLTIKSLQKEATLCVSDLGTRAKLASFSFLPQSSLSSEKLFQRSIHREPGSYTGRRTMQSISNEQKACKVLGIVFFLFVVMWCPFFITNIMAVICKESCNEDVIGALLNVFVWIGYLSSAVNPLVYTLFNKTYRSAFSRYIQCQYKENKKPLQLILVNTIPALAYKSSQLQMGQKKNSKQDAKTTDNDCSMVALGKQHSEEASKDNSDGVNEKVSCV
Method: The experiment was carried out as follows. 2 or 3 days before the experiment CHO cells expressing approximately 250 fmol/mg 5-HT2A receptors are plated at a density sufficient to yield a mono-confluent layer on the day of the experiment. […] Lacer intensity was set to a suitable level to obtain basal values of approximately 8000-10000 fluorescence units. The variation in basal fluorescence should be less than 10%. […] Test substances are added to the cells 5 minutes before the 5-HT.

Molecules are shown by their SMILES.

A word on the IC50: it is the concentration at which inhibition is half-maximal. Read a low IC50 as higher potency. As usually defined, the pA2 is a measure of antagonist potency on a negative log scale. Low values mean lower antagonist potency, high ones higher antagonist potency.

T1 sequence (P31652 whole entry): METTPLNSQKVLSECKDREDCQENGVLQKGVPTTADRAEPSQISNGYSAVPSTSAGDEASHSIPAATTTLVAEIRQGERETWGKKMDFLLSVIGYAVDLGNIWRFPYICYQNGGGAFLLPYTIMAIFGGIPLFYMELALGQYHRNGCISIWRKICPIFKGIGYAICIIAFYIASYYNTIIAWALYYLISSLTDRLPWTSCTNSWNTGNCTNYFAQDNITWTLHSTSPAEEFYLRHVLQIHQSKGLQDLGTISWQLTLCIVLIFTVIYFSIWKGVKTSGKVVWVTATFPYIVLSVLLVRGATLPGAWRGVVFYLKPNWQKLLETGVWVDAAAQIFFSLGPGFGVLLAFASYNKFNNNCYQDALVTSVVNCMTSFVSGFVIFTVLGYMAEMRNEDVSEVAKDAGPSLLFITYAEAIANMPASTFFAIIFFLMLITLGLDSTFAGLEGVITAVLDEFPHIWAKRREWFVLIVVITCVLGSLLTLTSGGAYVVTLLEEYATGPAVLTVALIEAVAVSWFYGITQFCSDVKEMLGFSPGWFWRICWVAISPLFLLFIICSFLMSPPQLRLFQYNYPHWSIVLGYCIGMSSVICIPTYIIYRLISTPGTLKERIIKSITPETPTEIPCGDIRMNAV

Consider `CNCc1ccccc1Sc1c[nH]c2cc(F)ccc12` [compounds of the present invention, [2-(6-fluoro-1H-indol-3-ylsulfanyl)benzyl]methyl amine], for which the IC50 in assay [1] is 0.4 nM; in assay [2] it was 4.4 nM. The “% of time spent in REM” value in assay [3] (0.4 mg/kg free base) and in assay [3] (4.0 mg/kg free base) was 0.00% throughout. Besides, the entries for the “% of time spent in SWS” value in assay [3] (0.4 mg/kg free base) and in assay [3] (4.0 mg/kg free base) were 62.08% and 69.97%, respectively. The results for the “% of time spent in Wake” value in assay [3] (0.4 mg/kg free base) and in assay [3] (4.0 mg/kg free base) were 37.92% and 30.03%, respectively. Moreover, the sleep latency was determined as 26.43 min in assay [3] (0.4 mg/kg) and 20.62 min in assay [3] (4.0 mg/kg). Moreover, in assay [4], the Kb was 130 nM. Moreover, the pA2 in assay [4] (schild analysis, CHO cells expressing 5-HT2A, 5-HT curves with 150, 400, 1500, 4000 nM compound) is recorded as 6.88.

These data come from patent US8138220B2, “[2-(6-fluoro-1H-indol-3-ylsulfanyl)benzyl]methyl amine for the treatment of affective disorders” (H. Lundbeck A/S, priority 2006, dated 2012).
